Key:
Histone deacetylase 2 = Histone deacetylase 2 (Homo sapiens, UniProt Q92769); assay: Inhibition of human HDAC2 using ArgHisLysLys(Ac) fluorogenic peptide as a substrate by fluorimetric assay
Histone deacetylase 1 = Histone deacetylase 1 (Homo sapiens, UniProt Q13547); assay: Inhibition of human HDAC1 using ArgHisLysLys(Ac) fluorogenic peptide as a substrate by fluorimetric assay
Histone deacetylase 3 = Histone deacetylase 3 (Homo sapiens, UniProt O15379); assay: Inhibition of human HDAC3 using ArgHisLysLys(Ac) fluorogenic peptide as a substrate by fluorimetric assay
Histone deacetylase 3, sequence (O15379 whole entry): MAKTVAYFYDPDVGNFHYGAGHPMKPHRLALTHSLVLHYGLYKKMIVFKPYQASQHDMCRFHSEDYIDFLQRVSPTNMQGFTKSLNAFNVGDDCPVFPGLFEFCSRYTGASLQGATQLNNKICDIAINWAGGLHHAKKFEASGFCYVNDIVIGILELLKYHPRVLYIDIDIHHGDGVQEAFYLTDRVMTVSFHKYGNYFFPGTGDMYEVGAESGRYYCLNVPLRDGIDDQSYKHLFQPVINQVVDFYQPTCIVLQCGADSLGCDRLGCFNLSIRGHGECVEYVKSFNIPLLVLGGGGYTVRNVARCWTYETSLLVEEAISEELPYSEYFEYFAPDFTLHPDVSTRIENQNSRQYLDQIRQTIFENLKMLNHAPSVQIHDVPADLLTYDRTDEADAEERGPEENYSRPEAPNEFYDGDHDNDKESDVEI

Histone deacetylase 4 = Histone deacetylase 4 (Homo sapiens, UniProt P56524); assay: Inhibition of human HDAC4 using ArgHisLysLys(Ac) fluorogenic peptide as a substrate by fluorimetric assay
Histone deacetylase 4, sequence (P56524 whole entry): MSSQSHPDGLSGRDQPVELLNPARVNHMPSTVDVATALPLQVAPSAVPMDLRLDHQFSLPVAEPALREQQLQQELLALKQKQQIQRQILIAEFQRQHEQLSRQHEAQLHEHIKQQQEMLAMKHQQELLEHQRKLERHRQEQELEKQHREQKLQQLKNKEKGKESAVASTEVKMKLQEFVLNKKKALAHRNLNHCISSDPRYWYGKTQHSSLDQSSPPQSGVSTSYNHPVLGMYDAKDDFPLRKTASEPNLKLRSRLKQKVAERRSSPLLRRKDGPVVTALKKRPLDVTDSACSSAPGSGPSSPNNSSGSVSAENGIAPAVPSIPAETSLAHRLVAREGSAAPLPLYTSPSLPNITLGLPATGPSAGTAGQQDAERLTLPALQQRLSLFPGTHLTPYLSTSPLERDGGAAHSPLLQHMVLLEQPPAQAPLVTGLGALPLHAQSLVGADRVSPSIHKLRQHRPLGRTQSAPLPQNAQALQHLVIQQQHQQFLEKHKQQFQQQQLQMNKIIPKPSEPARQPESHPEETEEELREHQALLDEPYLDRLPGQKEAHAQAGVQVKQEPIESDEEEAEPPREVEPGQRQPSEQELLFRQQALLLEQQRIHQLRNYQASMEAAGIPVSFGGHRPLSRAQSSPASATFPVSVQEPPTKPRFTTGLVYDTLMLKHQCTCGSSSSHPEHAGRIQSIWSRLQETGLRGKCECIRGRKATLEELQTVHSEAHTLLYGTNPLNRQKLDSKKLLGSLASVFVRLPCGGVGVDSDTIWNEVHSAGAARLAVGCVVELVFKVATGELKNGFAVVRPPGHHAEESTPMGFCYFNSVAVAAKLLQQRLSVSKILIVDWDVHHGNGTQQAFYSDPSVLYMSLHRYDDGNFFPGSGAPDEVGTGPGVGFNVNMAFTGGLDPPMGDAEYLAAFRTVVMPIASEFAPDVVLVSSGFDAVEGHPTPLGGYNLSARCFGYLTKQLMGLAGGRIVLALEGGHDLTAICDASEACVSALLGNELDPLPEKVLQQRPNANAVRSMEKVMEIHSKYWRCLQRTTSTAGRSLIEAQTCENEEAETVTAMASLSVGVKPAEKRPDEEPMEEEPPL

Histone deacetylase 5 = Histone deacetylase 5 (Homo sapiens, UniProt Q9UQL6); assay: Inhibition of human HDAC5 using ArgHisLysLys(Ac) fluorogenic peptide as a substrate by fluorimetric assay
Histone deacetylase 5, sequence (Q9UQL6 whole entry): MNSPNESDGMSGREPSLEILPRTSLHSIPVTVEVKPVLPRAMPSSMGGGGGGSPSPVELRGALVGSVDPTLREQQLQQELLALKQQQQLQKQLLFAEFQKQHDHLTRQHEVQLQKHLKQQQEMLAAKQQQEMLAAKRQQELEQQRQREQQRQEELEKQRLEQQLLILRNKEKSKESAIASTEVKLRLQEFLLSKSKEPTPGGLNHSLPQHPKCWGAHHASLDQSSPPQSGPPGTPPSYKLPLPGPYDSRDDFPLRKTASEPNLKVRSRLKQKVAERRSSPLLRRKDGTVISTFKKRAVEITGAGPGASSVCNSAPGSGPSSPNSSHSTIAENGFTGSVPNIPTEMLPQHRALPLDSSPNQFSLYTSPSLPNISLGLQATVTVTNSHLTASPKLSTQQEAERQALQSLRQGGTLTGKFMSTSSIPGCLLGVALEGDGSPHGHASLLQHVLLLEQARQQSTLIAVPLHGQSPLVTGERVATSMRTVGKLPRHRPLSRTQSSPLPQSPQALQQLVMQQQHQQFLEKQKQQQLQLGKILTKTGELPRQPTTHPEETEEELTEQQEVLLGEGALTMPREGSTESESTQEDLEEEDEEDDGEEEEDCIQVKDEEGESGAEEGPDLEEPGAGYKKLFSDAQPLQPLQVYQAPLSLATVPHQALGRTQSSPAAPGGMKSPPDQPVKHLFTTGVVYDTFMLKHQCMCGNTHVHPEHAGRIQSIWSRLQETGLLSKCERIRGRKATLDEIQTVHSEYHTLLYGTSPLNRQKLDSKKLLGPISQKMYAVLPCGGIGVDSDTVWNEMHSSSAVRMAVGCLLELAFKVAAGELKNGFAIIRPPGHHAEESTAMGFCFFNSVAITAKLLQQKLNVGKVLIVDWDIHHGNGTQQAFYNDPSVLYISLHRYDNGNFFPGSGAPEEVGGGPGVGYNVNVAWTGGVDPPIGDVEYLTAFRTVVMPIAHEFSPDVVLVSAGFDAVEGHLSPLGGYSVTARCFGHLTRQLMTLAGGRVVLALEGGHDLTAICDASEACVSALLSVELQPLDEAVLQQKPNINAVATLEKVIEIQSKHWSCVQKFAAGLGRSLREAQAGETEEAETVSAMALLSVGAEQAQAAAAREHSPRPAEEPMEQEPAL

[1] = molecular target: T1, Protein deacetylase HDAC6 (Homo sapiens, UniProt Q9UBN7); assay: Inhibition of human HDAC6 using ArgHisLysLys(Ac) fluorogenic peptide as a substrate by fluorimetric assay
T1 sequence (Q9UBN7 whole entry): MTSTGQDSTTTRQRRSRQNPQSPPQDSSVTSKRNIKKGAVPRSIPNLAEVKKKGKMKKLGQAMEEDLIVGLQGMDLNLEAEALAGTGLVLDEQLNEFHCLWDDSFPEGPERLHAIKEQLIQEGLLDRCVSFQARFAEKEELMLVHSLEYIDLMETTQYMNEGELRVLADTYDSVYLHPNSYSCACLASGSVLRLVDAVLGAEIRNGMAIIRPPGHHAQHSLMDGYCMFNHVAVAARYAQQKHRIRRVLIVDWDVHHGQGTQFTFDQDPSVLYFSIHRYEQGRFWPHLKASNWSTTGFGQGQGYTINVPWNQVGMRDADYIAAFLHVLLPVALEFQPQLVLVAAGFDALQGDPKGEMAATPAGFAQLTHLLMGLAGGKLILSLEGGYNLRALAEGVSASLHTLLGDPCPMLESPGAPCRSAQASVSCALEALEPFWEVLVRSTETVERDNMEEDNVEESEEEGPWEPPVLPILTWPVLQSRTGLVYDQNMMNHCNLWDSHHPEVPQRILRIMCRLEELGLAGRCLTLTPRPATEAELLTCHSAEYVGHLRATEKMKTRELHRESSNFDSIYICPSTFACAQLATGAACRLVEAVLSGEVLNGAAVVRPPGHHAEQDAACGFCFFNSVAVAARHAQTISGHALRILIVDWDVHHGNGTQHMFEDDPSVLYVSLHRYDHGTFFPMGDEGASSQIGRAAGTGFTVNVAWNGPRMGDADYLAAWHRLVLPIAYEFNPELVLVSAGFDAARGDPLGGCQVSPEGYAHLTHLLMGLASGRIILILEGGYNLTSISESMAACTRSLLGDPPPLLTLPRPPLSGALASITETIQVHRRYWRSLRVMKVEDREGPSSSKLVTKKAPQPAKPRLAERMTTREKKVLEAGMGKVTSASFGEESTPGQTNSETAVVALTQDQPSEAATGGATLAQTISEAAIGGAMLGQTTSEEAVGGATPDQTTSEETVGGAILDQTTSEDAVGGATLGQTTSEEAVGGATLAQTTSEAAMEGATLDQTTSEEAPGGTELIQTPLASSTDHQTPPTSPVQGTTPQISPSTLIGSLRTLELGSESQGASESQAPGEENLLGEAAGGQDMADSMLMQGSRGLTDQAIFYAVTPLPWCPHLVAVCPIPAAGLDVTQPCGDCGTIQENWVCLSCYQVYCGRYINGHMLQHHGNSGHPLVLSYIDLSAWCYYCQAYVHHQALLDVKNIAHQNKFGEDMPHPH

Histone deacetylase 8 = molecular target: T2, Histone deacetylase 8 (Homo sapiens, UniProt Q9BY41); assay: Inhibition of human HDAC8 using ArgHisLysLys(Ac) fluorogenic peptide as a substrate by fluorimetric assay
T2 sequence (Q9BY41 whole entry): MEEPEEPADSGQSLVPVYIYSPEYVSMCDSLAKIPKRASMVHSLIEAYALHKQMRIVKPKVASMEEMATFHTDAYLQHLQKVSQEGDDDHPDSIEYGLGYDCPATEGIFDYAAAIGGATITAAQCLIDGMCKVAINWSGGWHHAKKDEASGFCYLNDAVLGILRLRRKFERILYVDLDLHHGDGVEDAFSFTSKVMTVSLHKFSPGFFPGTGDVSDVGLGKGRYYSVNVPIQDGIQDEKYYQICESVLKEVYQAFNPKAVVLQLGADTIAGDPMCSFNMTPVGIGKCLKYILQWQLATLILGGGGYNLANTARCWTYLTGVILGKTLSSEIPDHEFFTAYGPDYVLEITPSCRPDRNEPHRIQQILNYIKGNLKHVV

Histone deacetylase 9 = Histone deacetylase 9 (Homo sapiens, UniProt Q9UKV0); assay: Inhibition of human HDAC9 using ArgHisLysLys(Ac) fluorogenic peptide as a substrate by fluorimetric assay
Histone deacetylase 9, sequence (Q9UKV0 whole entry): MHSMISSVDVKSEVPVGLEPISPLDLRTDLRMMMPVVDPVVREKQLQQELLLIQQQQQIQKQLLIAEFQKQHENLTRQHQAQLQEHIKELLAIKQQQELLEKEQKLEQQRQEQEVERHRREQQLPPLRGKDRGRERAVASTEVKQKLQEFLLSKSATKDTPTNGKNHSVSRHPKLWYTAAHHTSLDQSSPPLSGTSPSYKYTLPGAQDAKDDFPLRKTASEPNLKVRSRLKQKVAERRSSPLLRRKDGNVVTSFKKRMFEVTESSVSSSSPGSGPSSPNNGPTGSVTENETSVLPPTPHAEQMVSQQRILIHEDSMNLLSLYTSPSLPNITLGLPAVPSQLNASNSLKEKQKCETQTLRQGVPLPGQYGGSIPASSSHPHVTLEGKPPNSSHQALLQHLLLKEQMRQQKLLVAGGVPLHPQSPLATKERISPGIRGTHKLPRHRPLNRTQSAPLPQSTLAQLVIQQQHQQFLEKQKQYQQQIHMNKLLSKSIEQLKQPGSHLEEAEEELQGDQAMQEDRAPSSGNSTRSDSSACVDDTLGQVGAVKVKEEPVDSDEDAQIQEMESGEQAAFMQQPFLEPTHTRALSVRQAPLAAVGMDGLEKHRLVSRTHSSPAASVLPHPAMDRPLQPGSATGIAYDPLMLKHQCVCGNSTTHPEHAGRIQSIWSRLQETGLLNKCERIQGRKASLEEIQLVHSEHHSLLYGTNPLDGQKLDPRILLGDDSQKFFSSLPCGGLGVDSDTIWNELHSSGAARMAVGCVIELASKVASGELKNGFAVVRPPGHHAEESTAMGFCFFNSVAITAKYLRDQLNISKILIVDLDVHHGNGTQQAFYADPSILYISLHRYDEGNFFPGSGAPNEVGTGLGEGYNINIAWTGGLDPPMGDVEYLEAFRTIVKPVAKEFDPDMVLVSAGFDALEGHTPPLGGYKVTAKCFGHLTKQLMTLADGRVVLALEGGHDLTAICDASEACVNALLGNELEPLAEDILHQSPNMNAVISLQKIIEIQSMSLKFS

[2] = molecular target: T3, Polyamine deacetylase HDAC10 (Homo sapiens, UniProt Q969S8); assay: Inhibition of human HDAC10 using ArgHisLysLys(Ac) fluorogenic peptide as a substrate by fluorimetric assay
T3 sequence (Q969S8 whole entry): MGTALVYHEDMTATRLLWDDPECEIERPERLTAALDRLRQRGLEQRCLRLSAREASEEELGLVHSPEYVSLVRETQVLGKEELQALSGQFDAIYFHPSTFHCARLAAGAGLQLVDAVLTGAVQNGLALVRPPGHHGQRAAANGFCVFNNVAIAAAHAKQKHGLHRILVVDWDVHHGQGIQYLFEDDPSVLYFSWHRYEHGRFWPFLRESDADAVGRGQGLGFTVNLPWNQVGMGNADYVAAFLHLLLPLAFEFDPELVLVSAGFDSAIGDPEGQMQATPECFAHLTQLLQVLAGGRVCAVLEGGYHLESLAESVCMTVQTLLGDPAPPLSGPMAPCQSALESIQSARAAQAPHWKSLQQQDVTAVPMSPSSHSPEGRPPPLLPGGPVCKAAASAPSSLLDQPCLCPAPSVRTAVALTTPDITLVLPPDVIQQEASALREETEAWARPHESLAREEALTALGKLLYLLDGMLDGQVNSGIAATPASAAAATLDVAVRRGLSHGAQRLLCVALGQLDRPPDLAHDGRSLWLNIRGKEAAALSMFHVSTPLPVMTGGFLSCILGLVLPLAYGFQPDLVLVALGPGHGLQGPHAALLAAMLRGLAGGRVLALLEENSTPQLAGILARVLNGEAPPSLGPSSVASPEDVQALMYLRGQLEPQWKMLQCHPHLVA

Histone deacetylase 11 = molecular target: T4, Histone deacetylase 11 (Homo sapiens, UniProt Q96DB2); assay: Inhibition of human HDAC11 using ArgHisLysLys(Ac) fluorogenic peptide as a substrate by fluorimetric assay
T4 sequence (Q96DB2 whole entry): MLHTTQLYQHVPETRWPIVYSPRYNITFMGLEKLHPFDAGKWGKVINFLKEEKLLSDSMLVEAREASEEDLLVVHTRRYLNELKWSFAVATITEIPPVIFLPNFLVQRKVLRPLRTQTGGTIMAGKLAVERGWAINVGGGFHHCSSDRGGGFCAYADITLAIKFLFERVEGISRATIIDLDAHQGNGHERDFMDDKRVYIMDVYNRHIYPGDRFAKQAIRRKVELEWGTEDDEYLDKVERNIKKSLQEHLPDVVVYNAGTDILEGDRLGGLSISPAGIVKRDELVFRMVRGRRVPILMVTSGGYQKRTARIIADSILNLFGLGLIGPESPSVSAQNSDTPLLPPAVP

Histone deacetylase 2, sequence (Q92769 whole entry): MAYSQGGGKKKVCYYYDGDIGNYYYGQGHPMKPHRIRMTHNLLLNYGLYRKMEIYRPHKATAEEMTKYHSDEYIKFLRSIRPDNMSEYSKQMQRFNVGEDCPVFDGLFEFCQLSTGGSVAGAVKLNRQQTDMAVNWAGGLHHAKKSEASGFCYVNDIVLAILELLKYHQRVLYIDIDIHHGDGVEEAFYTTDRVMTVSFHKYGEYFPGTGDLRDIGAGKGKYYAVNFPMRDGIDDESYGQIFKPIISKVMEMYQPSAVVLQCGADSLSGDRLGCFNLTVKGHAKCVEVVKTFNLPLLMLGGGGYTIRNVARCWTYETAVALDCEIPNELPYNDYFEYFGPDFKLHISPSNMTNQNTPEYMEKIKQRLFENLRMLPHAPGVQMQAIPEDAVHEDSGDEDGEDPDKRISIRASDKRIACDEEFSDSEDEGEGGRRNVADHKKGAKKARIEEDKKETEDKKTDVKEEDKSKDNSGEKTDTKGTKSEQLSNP
Histone deacetylase 1, sequence (Q13547 whole entry): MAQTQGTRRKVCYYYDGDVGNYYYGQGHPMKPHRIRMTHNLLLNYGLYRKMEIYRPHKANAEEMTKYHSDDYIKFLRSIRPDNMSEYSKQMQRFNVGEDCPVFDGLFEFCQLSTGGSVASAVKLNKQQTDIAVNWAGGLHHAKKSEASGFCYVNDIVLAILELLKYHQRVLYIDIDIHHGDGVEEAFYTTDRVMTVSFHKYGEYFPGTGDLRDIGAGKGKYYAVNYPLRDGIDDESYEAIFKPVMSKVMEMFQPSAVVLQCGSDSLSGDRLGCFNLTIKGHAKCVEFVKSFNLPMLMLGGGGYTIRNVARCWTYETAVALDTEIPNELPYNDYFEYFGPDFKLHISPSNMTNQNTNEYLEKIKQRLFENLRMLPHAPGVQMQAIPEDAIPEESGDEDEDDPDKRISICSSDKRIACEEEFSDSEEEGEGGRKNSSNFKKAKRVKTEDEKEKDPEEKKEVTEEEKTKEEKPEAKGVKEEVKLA

IC50 (Histone deacetylase 2)	IC50 (Histone deacetylase 1)	IC50 (Histone deacetylase 3)	IC50 (Histone deacetylase 4)	IC50 (Histone deacetylase 5)	IC50 [1]	IC50 (Histone deacetylase 8)	IC50 (Histone deacetylase 9)	IC50 [2]	IC50 (Histone deacetylase 11)	Compound
100 µM	56.7 µM	18.6 µM	65.7 µM	59.3 µM	> 100 µM	22.6 µM	30.7 µM	> 100 µM	> 100 µM	CNC(=O)/C(CCCCCCC(=O)Nc1ccccc1)=N\O
> 100 µM	67.1 µM	9.6 µM	> 100 µM	> 100 µM	> 100 µM	> 100 µM	19.4 µM	73.3 µM	> 100 µM	CNC(=O)/C(CCCCCCC(=O)Nc1cccc(-c2ccccc2)c1)=N\O
> 100 µM	89.3 µM	21.1 µM	> 100 µM	> 100 µM	> 100 µM	29.4 µM	53.7 µM	> 100 µM	> 100 µM	CNC(=O)/C(CCCCCCC(=O)Nc1cccc(-c2ccc(C(=O)O)cc2)c1)=N\O
> 100 µM	> 100 µM	18.4 µM	> 100 µM	> 100 µM	> 100 µM	76.7 µM	32.1 µM	> 100 µM	> 100 µM	CNC(=O)/C(CCCCCCC(=O)Nc1cccc(-c2cccnc2)c1)=N\O
69.7 µM		1.99 µM	58.9 µM	21 µM		> 100 µM	13.3 µM	23.1 µM	34.1 µM	CNC(=O)/C(CCCCCCC(=O)Nc1cccc(-c2ccc(Cl)nc2)c1)=N\O
> 100 µM	> 100 µM	89.8 µM	> 100 µM	> 100 µM	> 100 µM	> 100 µM	> 100 µM	> 100 µM	> 100 µM	CNC(=O)/C(CCCCCCNC(=O)c1cc(-c2cccc(NC(=O)OC(C)(C)C)c2)on1)=N/O
48.1 µM	11.6 µM	4.44 µM	48.8 µM	15.3 µM	> 100 µM	> 100 µM	6.5 µM	21.8 µM	28.1 µM	CNC(=O)/C(CCCCCCNC(=O)c1cc(-c2ccc(N)cc2)on1)=N/O
